Where a SMILES comes first, the peptide text is derived from it. Bridges are numbered along the chain shown (N, C = ends). The star is where a group is joined. X3 = O=C(CCCCCOP(=O)(O)OC1CCC(c2ccccc2)(c2ccccc2)CC1)*; X4 = O=C(CCC(=O)*)NS(=O)(=O)c1ccc2ccccc2c1; X2 = O=C(CCCCCOP(=O)(O)Oc1ccc2ccccc2c1)*; X1 = O=C(CCCCCOP(=O)(O)OCCCCCc1ccccc1)*
target: Albumin (Oryctolagus cuniculus) (UniProt P49065); assay: Compound was measured for its retention time in rabbit serum albumin;where k`=tt-t0/t0; tt=retention time of compound and t0=retention time of DMSO
Sequence (P49065 whole entry, looked up): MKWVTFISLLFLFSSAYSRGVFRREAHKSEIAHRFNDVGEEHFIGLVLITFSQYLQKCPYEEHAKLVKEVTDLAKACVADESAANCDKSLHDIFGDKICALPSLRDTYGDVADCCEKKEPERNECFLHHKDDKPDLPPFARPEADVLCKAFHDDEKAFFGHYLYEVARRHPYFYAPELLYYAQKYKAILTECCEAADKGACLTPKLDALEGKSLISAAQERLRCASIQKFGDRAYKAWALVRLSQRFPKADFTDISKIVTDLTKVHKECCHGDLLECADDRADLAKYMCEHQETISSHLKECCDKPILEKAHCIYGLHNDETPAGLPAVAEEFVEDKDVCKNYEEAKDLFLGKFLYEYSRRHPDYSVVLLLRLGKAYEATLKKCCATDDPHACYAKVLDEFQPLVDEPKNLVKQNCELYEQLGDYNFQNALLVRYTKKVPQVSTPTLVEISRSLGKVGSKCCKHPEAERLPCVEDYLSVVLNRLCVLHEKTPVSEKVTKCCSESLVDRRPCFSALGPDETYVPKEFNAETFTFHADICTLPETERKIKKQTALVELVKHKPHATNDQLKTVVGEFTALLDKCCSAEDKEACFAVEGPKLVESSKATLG

Structure (SMILES) | k'/k'+1
CC[C@H](C)[C@@H]1NC(=O)[C@H](CCCN=C(N)N)NC(=O)[C@@H]2CCCN2C(=O)[C@H](CC(N)=O)NC(=O)[C@H](CC(=O)O)NC(=O)[C@@H](NC(=O)[C@H](CC(C)C)NC(=O)[C@H](C)NC(C)=O)CSSC[C@@H](C(=O)N[C@@H](CCC(N)=O)C(=O)N[C@@H](Cc2ccccc2)C(=O)N[C@H](C(=O)N[C@@H](CCC(=O)O)C(=O)NCC(N)=O)C(C)C)NC(=O)[C@H](Cc2ccc(O)cc2)NC(=O)[C@H](Cc2c[nH]c3ccccc23)NC(=O)[C@H](CCCN=C(N)N)NC(=O)[C@H](CC(=O)O)NC1=O (Ac-ALCDNPRIDRWYCQFVEG-NH2; disulfide 3-13) | 0.39
CC[C@H](C)[C@@H]1NC(=O)[C@H](CCCN=C(N)N)NC(=O)[C@@H]2CCCN2C(=O)[C@H](CC(N)=O)NC(=O)[C@H](CC(=O)O)NC(=O)[C@@H](NC(=O)[C@H](CC(C)C)NC(=O)[C@H](C)NC(=O)CCCCCOP(=O)(O)OCCCCCc2ccccc2)CSSC[C@@H](C(=O)N[C@@H](CCC(N)=O)C(=O)N[C@@H](Cc2ccccc2)C(=O)N[C@H](C(=O)N[C@@H](CCC(=O)O)C(=O)NCC(N)=O)C(C)C)NC(=O)[C@H](Cc2ccc(O)cc2)NC(=O)[C@H](Cc2c[nH]c3ccccc23)NC(=O)[C@H](CCCN=C(N)N)NC(=O)[C@H](CC(=O)O)NC1=O (X1-ALCDNPRIDRWYCQFVEG-NH2; disulfide 3-13) | 0.98
CC[C@H](C)[C@@H]1NC(=O)[C@H](CCCN=C(N)N)NC(=O)[C@@H]2CCCN2C(=O)[C@H](CC(N)=O)NC(=O)[C@H](CC(=O)O)NC(=O)[C@@H](NC(=O)[C@H](CC(C)C)NC(=O)[C@H](C)NC(=O)CCCCCOP(=O)(O)Oc2ccc3ccccc3c2)CSSC[C@@H](C(=O)N[C@@H](CCC(N)=O)C(=O)N[C@@H](Cc2ccccc2)C(=O)N[C@H](C(=O)N[C@@H](CCC(=O)O)C(=O)NCC(N)=O)C(C)C)NC(=O)[C@H](Cc2ccc(O)cc2)NC(=O)[C@H](Cc2c[nH]c3ccccc23)NC(=O)[C@H](CCCN=C(N)N)NC(=O)[C@H](CC(=O)O)NC1=O (X2-ALCDNPRIDRWYCQFVEG-NH2; disulfide 3-13) | 0.97
CC[C@H](C)[C@@H]1NC(=O)[C@H](CCCN=C(N)N)NC(=O)[C@@H]2CCCN2C(=O)[C@H](CC(N)=O)NC(=O)[C@H](CC(=O)O)NC(=O)[C@@H](NC(=O)[C@H](CC(C)C)NC(=O)[C@H](C)NC(=O)CCCCCOP(=O)(O)OC2CCC(c3ccccc3)(c3ccccc3)CC2)CSSC[C@@H](C(=O)N[C@@H](CCC(N)=O)C(=O)N[C@@H](Cc2ccccc2)C(=O)N[C@H](C(=O)N[C@@H](CCC(=O)O)C(=O)NCC(N)=O)C(C)C)NC(=O)[C@H](Cc2ccc(O)cc2)NC(=O)[C@H](Cc2c[nH]c3ccccc23)NC(=O)[C@H](CCCN=C(N)N)NC(=O)[C@H](CC(=O)O)NC1=O (X3-ALCDNPRIDRWYCQFVEG-NH2; disulfide 3-13) | 0.97
CC[C@H](C)[C@@H]1NC(=O)[C@H](CCCN=C(N)N)NC(=O)[C@@H]2CCCN2C(=O)[C@H](CC(N)=O)NC(=O)[C@H](CC(=O)O)NC(=O)[C@@H](NC(=O)[C@H](CC(C)C)NC(=O)[C@H](C)NC(=O)CCC(=O)NS(=O)(=O)c2ccc3ccccc3c2)CSSC[C@@H](C(=O)N[C@@H](CCC(N)=O)C(=O)N[C@@H](Cc2ccccc2)C(=O)N[C@H](C(=O)N[C@@H](CCC(=O)O)C(=O)NCC(N)=O)C(C)C)NC(=O)[C@H](Cc2ccc(O)cc2)NC(=O)[C@H](Cc2c[nH]c3ccccc23)NC(=O)[C@H](CCCN=C(N)N)NC(=O)[C@H](CC(=O)O)NC1=O (X4-ALCDNPRIDRWYCQFVEG-NH2; disulfide 3-13) | 0.98

From ChEMBL document CHEMBL1136423, “Phosphate ester serum albumin affinity tags greatly improve peptide half-life in vivo” (Bioorg Med Chem Lett, 2003)
